Results reported in patent US7566712B2, “Biaryl piperazinyl-pyridine analogues” (Neurogen Corporation, priority 2003, dated 2009).

Biological target: T1, human capsaicin receptor (Homo sapiens, UniProt Q8NER1)
T1 construct: pBK-CMV expression construct encoding the full length human capsaicin receptor; expressed in transfected cells
Assay: Calcium mobilization assay, determination of antagonist activity (Example 6)
Format: cell-based
Settings: Table II; IC50 determined as described in Example 6
How it was run: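 Antagonism measured as inhibition of capsaicin-evoked (final concentration = EC50, from an 8-point 1 nM–3 μM curve) Fluo-3 calcium signal in stable hVR1-HEK293 cells. Test compounds at 1–5 μM final, 0.5–6 h dark preincubation at room temperature. IC50 = concentration giving 50% reduction versus agonist-only response.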

T1 sequence (Q8NER1 whole entry): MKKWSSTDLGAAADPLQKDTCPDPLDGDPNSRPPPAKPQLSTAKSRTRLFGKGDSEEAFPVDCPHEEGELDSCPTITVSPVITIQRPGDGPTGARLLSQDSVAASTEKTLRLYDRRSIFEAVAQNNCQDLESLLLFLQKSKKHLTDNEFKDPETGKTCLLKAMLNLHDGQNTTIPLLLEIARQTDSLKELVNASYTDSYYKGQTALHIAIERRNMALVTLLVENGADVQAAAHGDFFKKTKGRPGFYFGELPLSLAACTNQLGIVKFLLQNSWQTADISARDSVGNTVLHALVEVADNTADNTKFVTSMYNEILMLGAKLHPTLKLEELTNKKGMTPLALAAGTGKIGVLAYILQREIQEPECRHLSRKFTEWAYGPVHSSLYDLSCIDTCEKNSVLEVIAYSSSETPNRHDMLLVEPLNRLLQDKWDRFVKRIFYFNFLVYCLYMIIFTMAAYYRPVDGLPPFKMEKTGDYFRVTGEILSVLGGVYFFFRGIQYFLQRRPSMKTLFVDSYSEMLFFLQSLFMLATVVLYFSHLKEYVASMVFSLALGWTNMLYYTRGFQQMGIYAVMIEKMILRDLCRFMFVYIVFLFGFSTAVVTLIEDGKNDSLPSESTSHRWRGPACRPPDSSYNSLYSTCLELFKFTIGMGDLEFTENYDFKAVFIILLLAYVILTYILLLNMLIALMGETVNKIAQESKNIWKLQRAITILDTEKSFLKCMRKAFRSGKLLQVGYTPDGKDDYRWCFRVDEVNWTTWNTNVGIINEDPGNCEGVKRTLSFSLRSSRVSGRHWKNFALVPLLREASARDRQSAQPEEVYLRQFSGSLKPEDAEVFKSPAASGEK

IC50, ≤ 1000 nM:
CC(C)Oc1cccc(-c2cc(N3CCN(c4ncccc4Cl)C[C@H]3C)nc(N3CCOCC3)n2)c1 [Example 544, 4-[4-[(2R)-4-(3 chloropyridin-2-yl)-2-methylpiperazin-1-yl]-6-(3-isopropoxyphenyl)pyrimidin-2-yl]morpholine]
COc1ccc(Cl)cc1-c1nc(N2CCOCC2)nc(N2CCN(c3ccccn3)CC2)n1 [Example 431, 2-(5-chloro-2-methoxyphenyl)-4-morpholin-4-yl-6-(4-pyridin-2-ylpiperazin-1-yl)-1,3,5-triazine]
c1ccc(N2CCN(c3nc(-c4cccc5c4oc4ccccc45)nc(N4CCOCC4)n3)CC2)nc1 [Example 432, 2-dibenzo[b,d]furan-4-yl-4-morpholin-4-yl-6-(4-pyridin-2-ylpiperazin-1-yl)-1,3,5-triazine]
CN(C)C1CCN(c2nc(-c3ccc(F)c(Cl)c3)cc(N3CCN(c4ncccc4C(F)(F)F)CC3)n2)C1 (stereo not shown) [Example 562, 1-(4-(3-chloro-4-fluorophenyl)-6-{4-[3-(trifluoromethyl)pyridin-2-yl]piperazin-1-yl}pyrimidin-2-yl)-N,N-dimethylpyrrolidin-3-amine]
COc1cccc(-c2cc(N3CCN(c4ncccc4Cl)C[C@H]3C)nc(N3CCOCC3)n2)c1 [Example 526, 4-[4-[(2R)-4-(3-chloropyridin-2-yl)-2-methylpiperazin-1-yl]-6-(3-methoxyphenyl)pyrimidin-2-yl]morpholine]

Same assay, conditions: Table II; determined as described in Example 6 (antagonist activity); "*" = 1 micromolar or less

IC50, ≤ 1000 nM:
C[C@@H]1CN(c2nccnc2Cl)CCN1c1cc(-c2ccc(F)c(F)c2)nc(N2CCCC2)n1 [Example 820, 4-[(2R)-4-(3-chloropyrazin-2-yl)-2-methylpiperazin-1-yl]-6-(3,4-difluorophenyl)-2-pyrrolidin-1-ylpyrimidine]
C[C@@H]1CN(c2nccnc2Cl)CCN1c1cc(-c2ccc(F)cc2)nc(N2CCOCC2)n1 [Example 929, 4-[4-[(2R)-4-(3-chloropyrazin-2-yl)-2-methylpiperazin-1-yl]-6-(4-fluorophenyl)pyrimidin-2-yl]morpholine]
CC1CCCN1c1nc(-c2ccc(C#N)cc2)cc(N2CCN(c3ncccc3Cl)C[C@H]2C)n1 (stereo partly shown) [Example 859, 4-[6-[4-(3-chloropyridin-2-yl)-2-methylpiperazin-1-yl]-2-(2-methylpyrrolidin-1-yl)pyrimidin-4-yl]benzonitrile]

Same assay, conditions: determined as described in Example 6 (calcium mobilization, antagonist activity); Table II

IC50, ≤ 1000 nM:
CC(C)N(C)c1nc(-c2ccc(F)c(Cl)c2)cc(N2CCN(c3ncccc3C(F)(F)F)CC2)n1 [Example 600, 4-(3-chloro-4-fluorophenyl)-N-isopropyl-N-methyl-6-{4-[3-(trifluoromethyl)pyridin-2-yl]piperazin-1-yl}pyrimidin-2-amine]
Cc1cc(-c2cc(N3CCN(c4ncccc4C(F)(F)F)CC3)nc(N3CCNCC3)n2)ccc1F [Example 645, 4-(4-fluoro-3-methylphenyl)-2-piperazin-1-yl-6-{4-[3-(trifluoromethyl)pyridin-2-yl]piperazin-1-yl}pyrimidine]
CC1CN(c2cc(-c3ccc(F)c(Cl)c3)nc(N3CCOCC3)n2)CCN1c1ccccn1 (stereo not shown) [Example 632, 4-[4-(3-chloro-4-fluorophenyl)-6-(3-methyl-4-pyridin-2-ylpiperazin-1-yl)pyrimidin-2-yl]morpholine]
O=C1CCC(=O)N1c1nc(-c2ccc(F)c(Cl)c2)cc(N2CCN(c3ncccc3C(F)(F)F)CC2)n1 [Example 680, 1-(4-(3-chloro-4-fluorophenyl)-6-{4-[3-(trifluoromethyl)pyridin-2-yl]piperazin-1-yl}pyrimidin-2-yl)pyrrolidine-2,5-dione]
CCC(CC)Oc1nc(-c2ccc(F)c(Cl)c2)cc(N2CCN(c3ncccc3C(F)(F)F)CC2)n1 [Example 658, 4-(3-chloro-4-fluorophenyl)-2-(1-ethylpropoxy)-6-{4-[3-(trifluoromethyl)pyridin-2-yl]piperazin-1-yl}pyrimidine]
